We go through four compounds from USRE43371E1, “Use of selected cyclosporins for the treatment of hepatitis C infection” (priority 2004, dated 2012).

≈ marks a conversion by molar mass, not a printed value.

Data set [1] relates to HCV replicon-containing MH-14 cells. Conditions: cited from earlier work; for HCV RNA accumulation was inhibited: Northern blot and quantitative RT-PCR.
The target in data set [2] is T1, cyclophilin (Homo sapiens, UniProt P62937).
T1 construct: purchased Sigma
In words: Peptidyl-prolyl cis-trans isomerase (PPIase) activity of cyclophilin, chymotrypsin-coupled Suc-AAPF-pNA assay. The format is biochemical. Conditions: compared with substitution in position 4 only.
Description: Peptidyl-prolyl cis-trans isomerase (PPlase) activity of cyclophilins was determined using a procedure adapted from Kofron et al. (see Biochemistry 30, 6127-6134 (1991); J. Am. Chem. Soc. 114, 2670-2675 (1992)). N-succinylated Ala-Ala-Pro-Phe-para nitro-aniline (Suc-AAPF-pNA, Bachem, Bubendorf, Switzerland) was used as the substrate. The assay was based on the preferential chymotrypsin cleavage of the trans isoform of the Phe-pNA bond in the tetrapeptide Ala-Ala-Pro-Phe-pNA. This cleavage liberates the para-nitroaniline moiety that can be detected and quantitated at 390 nm (ε=11,814 M^−1cm^−1). […] Cis-trans isomerization is catalysed by cyclophilin (PPlase, EC 5.2.1.8). […] Subsequent to the addition of 3.75 mg of chymotrypsin (70 μl of a solution of chymotrypsin in 10 mM HCl), the reaction was initiated by addition of 10 μl of a 3.2 mM solution of Suc-AAPF-pNA in 0.5 M LiCl/trifluoroethanol. The reaction was monitored for 3 min, and an initial rate constant was determined from the data obtained. As a control, an initial rate constant was also determined for a parallel reaction that lacked cyclophilin.

Data set [3] concerns CD4+ PBMCs. In words: Mixed lymphocyte reaction, proliferative response of CD4+ PBMCs. The format is cell-based. The following applies: for immunosuppressive activity (interpretation of Table 2): mixed lymphocyte reaction, 1 μg/ml; for % Stimulation (relative): cyclosporin 1 μg/ml, five days, [3H]-thymidine incorporation. Here is the method:
In this assay, cyclosporins were dissolved in ethanol (10 mg/ml). Freshly isolated CD4^+ PBMCs from two healthy donors were mixed subsequent to inactivation by irradiation of one of the populations (stimulator cells; S). […] R) was determined by [^3H]-thymidine incorporation. The assay was conducted reciprocally with the two cell populations, each being inactivated and stimulated in turn. Stimulation (%) of responder cells was calculated by the formula: […] Sample refers to a mixture of stimulator and responder cells. Background represents a control in which only stimulator cells are mixed.
A general note: Incorporation of labelled thymidine or its analogues reports DNA synthesis.

Data set [4] deals with Jc1-Luc recombinant virus (HCV strains J6/JFH1) in Huh-7-Lunet and Huh-7.5 cells. Nature of the data set: Luciferase assay in hepatoma cells infected with Jc1-Luc recombinant HCV. The format is cell-based, hepatitis C virus (HCV). Conditions: Huh-7-Lunet and Huh-7.5 cells infected with Jc1-Luc; for antiviral activity: 72 hours (FIGS. 1 and 2). The text has this:
The method used hepatoma cells that had been infected with an infectious full length cheieric HCV construct or the same virus that was modified to carry a luciferase […] gene.
Infectious HCV viruses of full-length chimeric genome between HCV strains J6 and JFH1 (Jc1) were used to inoculate the hepatoma cells of the assays. The construct of Jc1 virus was also modified to obtain a bicistronic genome carrying a luciferase reporter gene (Jc1-Luc). Twenty-four and ninety-six hours after the transfection of RNA transcripts of the genomes by electroporation of Huh-7.5 cells, cell culture supernatant was collected. Supernatants were filtered ([…]) and cell culture infectious dose 50 (CCID50) per ml were determined by the limiting dilution assays according to Lindenbach et al. (Science, 309, (2005), 623-626). The CCID50 were 1.3×105 for Jc1 and 4.2×103 for Jc1-Luc.
Assays used either Huh-7-Lunet or Huh-7.5 cells (Lohmann et al., Science 285(5424), (1999), 110-113). Cells were grown in Dulbecco's modified Eagle's Medium (DMEM; Gibco) supplemented with 10% heat-inactivated fetal bovine serum (FCS) (Integro), 1× non-essential amino acids (Gibco), 100 IU/ml penicillin (Gibco), 100 μg/ml streptomycin (Gibco) or 25 μg/ml hygromycin (Gibco) for Huh-mono cells at 37° C. and 5% CO2. For antiviral (replication) assays, Huh-7-Lunet and Huh-7.5 cells were seeded at a density of 2×104 or 4×10^4 cells per well of a 12-well plate. Twenty four hours later, the medium was replaced by 0.5 ml of the Jc1-Luc virus stock (12-well plates) or 0.25 ml of the Jc1 virus stock (12-well plates).
The inhibition of viral replication were estimated by luciferase assay. To carry out luciferase assay, cells were harvested, washed with PBS and lysed in luciferase lysis buffer (1% Triton X-100, 25 mM glycylglycine, 15 mM MgSO4, 4 mM EGTA, and 1 mM DTT). Firefly luciferase activity was measured according to Krieger et al. (J Virol, 75(10), (2001), 4614-4624). […] Finally, luminescence was measured by using a Lumat LB9507 luminometer (Berthold) for 20 samples.

Data set [5] deals with T2, human recombinant cyclophilin A (Homo sapiens, UniProt P62937).
T2 construct: purchased Sigma
T2 sequence (P62937 whole entry): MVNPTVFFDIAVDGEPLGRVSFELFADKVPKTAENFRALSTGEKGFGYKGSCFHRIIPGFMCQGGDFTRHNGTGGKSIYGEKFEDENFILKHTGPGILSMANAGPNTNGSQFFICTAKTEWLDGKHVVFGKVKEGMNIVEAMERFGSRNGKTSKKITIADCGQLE
Nature of the data set: PPIase activity of cyclophilin A, tight binding inhibitor analysis. The class given is biochemical. The following applies: for k: rate constant for the rate limiting reaction; for Et: total enzyme concentration from tight binding fit. Here is the method:
Commercial human recombinant cyclophilin A (Sigma) was used in the assays. PPlase activity of cyclophilins was determined using a chymotrypsin-coupled spectrophotometric assay according to Garcia-Echverria et al. (BBRC, 191, (1993), 70-75). This method is based on the high trans selectivity of chymotrypsin for peptides of the type N-succinyl-ala-ala-pro-phe-p-nitroanilide. The peptides cleavage liberated the para-nitroaniline moiety that could be detected and quantitated at 390 nm. The hydrolysis of the cis form was limited by the rate of cis-trans isomerisation carried out by cyclophilin A. The peptide was made up in a solution of […] LiCl in 2,2,2-trifluoroethanol at 470 mM to enhance the cis conformer peptides population. The assay was performed on the split beam spectrophotometer and the water bath was set at 5° C. Cyclophilin A (7500 pmol/mg total enzyme concentration; Sigma) were dissolved at 20 nM in a buffer (35 mM HEPES and 0.26 mg/ml chymotrypsin (specific activity 50 units/mg), pH 7.8 with KOH) and were incubated for 6 minutes at room temperature followed by 54 minutes in the water bath. […] Then 3.5 ml of the incubated cyclophilin was added to the sample cuvette. […] Peptide was added at 25 μM to initiate the reaction and the change in absorbance was monitored at 10 data points per second. As a control, rates were also determined for a parallel reaction that lacked cyclophilin. These blank rates of peptide hydrolysis (i.e. in the absence of cyclophilin) were subtracted from rates in the presence of cyclophilin A.
The initial rates obtained from the PPlase assays were analysed by first order regression analysis by using first order transformation of the traces of the time course of the change in the absorbance at 390 nm. Total enzyme concentration (Et), the inhibitor dissociation constant (Ki) and the rate constant for the rate limiting reaction was calculated with the software FigSyS (2003, Biosoft) by fitting the data obtained from the regression analysis in the tight binding inhibitor multiprotein equation.
Once Et, Ki and k were calculated by the computer for a given set of data, a graphic representation of the data was plotted and the line fitted to the points assuming tight inhibitor binding to a single protein, defined by the following equations: v=K*Et*P−K(B−sqrt(B*B−4*C))/2 where B=Et*P+I+Ki and C=Et*P*I.

Data set [6] deals with HCV replicon in Huh-9-13 cells. In words: HCV replicon clearance and rebound in Huh-9-13 cells. The class given is cell-based, hepatitis C virus (HCV). Conditions: after 7 consecutive passages at 0.5 or 1 μg/ml; G418 1000 μg/ml for 2 passages (FIG. 3). For orientation: Replicon systems follow genome replication, usually without infectious particles.
Description: Assays used Huh-9-13 cells, human hepatoma cells (Huh-7) (Lohmann et al., Science 285(5424), (1999), 110-113) Cells were grown in the usual complete medium DMEM without G418 pressure.
RT-PCR were performed on extracts of viral RNA of samples taken at different passage points. The forward and reverse primers used were 5′-[sequence]-3′ and 5′-[sequence]-3′, respectively. The fluorogenic probe was 5′-[sequence]-3′. As an internal control, a plasmid containing part of the neomycin phosphotransferase gene sequence was used. Results were analysed and expressed as a quantity of replicon RNA (ng) per 1′000 cells and used to draft a graph.
Data set [7] can be described thus: Initial phase I clinical studies, safety of oral doses. The class given is in vivo. As to the method:
Initial phase I clinical studies were carried out to assess the safety of oral doses of [D-MeAla]^3-[EtVal]^4-CsA, and to determine the pharmacokinetic profile and safety profile of the drug substance. […] These side effects were not dose-related.

The subject of data set [8] is HCV replicon (genotype 1 b) in Huh 5-2 cells. Here is the method:
(§1) Assays used Huh 5-2 cells that contained a bicistronic RNA encoding a firefly luciferase-ubiquitin-neomycin phosphotransferase fusion protein and HCV proteins NS3-5. The viral sequences originated from an HCV virus of genotype 1 b. Cells were cultured in RPMI 1640 medium (Gibco) supplemented with 10% fetal calf serum, 2 mM glutamine (Life Technologies), 1× non-essential amino acids (Life Technologies), 100 u/ml penicillin, 100 μg/ml streptomycin and 250 μg/ml G418 (Geneticin, Life Technologies) at 37° C. and 5% CO2. For antiviral (replication) assays, cells were seeded at a density of 7000 cells/well in 96-well View Plates™ (Packard) in the same medium except for G418. After a 24-h incubation, medium was removed, serial dilutions of test compounds in medium were added, and cells were incubated for an additional 72 h.
Antiviral effects were estimated either by luciferase assay or quantitative RT-PCR. To carry out luciferase assays, medium was removed, and cells were washed with PBS. Subsequent to lysis in 50 μl of Glo-lysis buffer (Promega) for 15 min, 50 μl of Stead-Glo Luciferase Assay Reagent (Promega) were added to cell lysates. Luciferase activity was measured using a luminometer, and the signal from each test well was expressed as a percentage of the signal measured in wells of cultures not exposed to a test compound. […]

For data set [9] the test system is unchanged. The following applies: EC50 derived from RNA titers by quantitative RT-PCR; asterisk = lower of two independently determined values. As to the method:
as §1
Results from these experiments permitted calculation of EC50 for the different cyclosporins, which is the effective concentration required to inhibit HCV replicon replication by 50%, and of CC50, which is the concentration required that inhibits the proliferation of exponentially growing cells by 50%, and a selectivity index SI, which is the ratio between CC50 and EC50.

T1 sequence (P62937 whole entry): as above

Consider `C/C=C/C[C@@H](C)C(=O)[C@H]1C(=O)N[C@@H](C(C)C)C(=O)N(C)CC(=O)N(C)[C@@H](CC(C)C)C(=O)N[C@@H](C(C)C)C(=O)N(C)[C@@H](CC(C)C)C(=O)N[C@@H](C)C(=O)N[C@H](C)C(=O)N(C)[C@@H](CC(C)C)C(=O)N(C)[C@@H](CC(C)C)C(=O)N(C)[C@@H](C(C)C)C(=O)N1C` [PSC 833], for which, in data set [1] (MH-14 cells), the “HCV RNA accumulation was inhibited” value is listed as “not”.
As for `C/C=C/C[C@@H](C)[C@@H](O)[C@H]1C(=O)N[C@@H](CC)C(=O)N(C)[C@H](C)C(=O)N(CC)[C@@H](C(C)C)C(=O)N[C@@H](C(C)C)C(=O)N(C)[C@@H](CC(C)C)C(=O)N[C@@H](C)C(=O)N[C@H](C)C(=O)N(C)[C@@H](CC(C)C)C(=O)N(C)[C@@H](CC(C)C)C(=O)N(C)[C@@H](C(C)C)C(=O)N1C` [[D-MeAla]^3-[EtVal]^4-CsA], in data set [2], the “further increase in cyclophilin binding activity by substitution in position 3” value is recorded as ≥ 2 fold. Moreover, the “immunosuppressive activity (interpretation of Table 2)” value in data set [3] was “essentially devoid of immunosuppressive activity”. In addition, in [4], the antiviral activity entry is on record as “dose-dependent antiviral activity”. Also, the “higher affinity for cyclophilin compared to [MeIle]4-CsA” value in [5] (cyclophilin A) was ~6 fold. In addition, in [5], the k is 0.16 ± 0.0074 s − 1 and the Et came to 7500 pmol/mg. Besides, the “outcome of cultures in the presence of G418 (rebound phase)” value in [6] is reported as “the cultures died”. Besides, in data set [7] (doses of 50 to 1600 mg in a micro-emulsion in water), the “tolerability of oral doses” value was “well tolerated”. For the same compound, the side effects entry in data set [7] (oral doses 50 to 1600 mg, not dose-related) is “Mild and short-lived side effects were observed including nausea, vomiting, abdominal pain, mild headaches”.
In the case of `C/C=C/C[C@@H](C)[C@@H](O)[C@H]1C(=O)N[C@@H](CC)C(=O)N(C)CC(=O)N(C)[C@@H]([C@@H](C)CC)C(=O)N[C@@H](C(C)C)C(=O)N(C)[C@@H](CC(C)C)C(=O)N[C@@H](C)C(=O)N[C@H](C)C(=O)N(C)[C@@H](CC(C)C)C(=O)N(C)[C@@H](CC(C)C)C(=O)N(C)[C@@H](C(C)C)C(=O)N1C` [[MeIle]^4-CsA], the “% Stimulation (relative)” value in data set [3] (co-culture R1 × S2) is 84%. Moreover, the “% Stimulation (relative)” value in [3] (co-culture R2 × S1) was 75%. Besides, the “immunosuppressive activity (interpretation of Table 2)” value in data set [3] is on record as “essentially devoid of immunosuppressive activity”. Further, the “EC50 +/− Std. Dev.” value in data set [8] (luciferase assay, 72 h) turned out to be 0.22 µg/mL (≈ 0.183 µM). Also, in [8] (ratio between CC50 (MTT) and EC50 (luciferase)), the Selectivity index was determined as 64. The compound further returned an SI values in data set [9] of 73. Also, in [5], the k stood at 0.17 ± 0.0068 s − 1 and the Et is reported as 7500 pmol/mg. Also, in data set [1] (MH-14 cells), the “effectiveness in reducing HCV RNA titer relative to CsA” value is on record as “about equally as effective as CsA”.
For the compound Cyclosporin A [CsA], in [4], the “higher concentration needed for the same replication inhibiting effect as [D-MeAla]3-[EtVal]4-CsA” value turned out to be 10 fold and the antiviral activity result is given as “dose-dependent antiviral activity”. Also, in [5], the k was 0.17 ± 0.0069 s − 1 and the Et is given as 7500 pmol/mg. Besides, the “reduction of HCV RNA titer” value in data set [1] (7-day exposure, 1 μg/ml) was “about 200 fold”. Also, in [1] (MH-14 cells), the “HCV RNA accumulation was inhibited” value is given as “inhibited”.
